Measurements: US20230085307A1, “PYRIDAZINONE COMPOUND AND HERBICIDE” (NISSAN CHEMICAL CORPORATION, priority 2019, published 2023)

These molecules were tested on Japanese bulrush (assay: Test Example 2: herbicidal activity, application during weed generation under submerged conditions (Table 17, symbol B)). Settings: AAH 320 g/ha; application during weed generation, submerged conditions.
Format: in vivo, Japanese bulrush (Schoenoplectus juncoides)
Method in brief: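 Steps: fill Wagner pots with alluvial soil; add water to give 4 cm depth; sow the species mixed; grow under glass at 25–30° C.; at 1–2 leaves apply water-diluted emulsion formulation to the water surface at a fixed herbicide amount; score after 3 weeks.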

SMILES	herbicidal effect rating, B: Japanese bulrush
CCCC(=O)Oc1c(C)nn(C)c(=O)c1-c1c(-c2ccc(OC)cc2)sc2ccc(F)cc12 [2-027]	4 (Herbicidal rate of 70% or more and less than 90%)
CCOc1ccc(-c2sc3ccc(F)cc3c2-c2c(O)c(C)nn(C)c2=O)cc1 [2-030]	2 (Herbicidal rate of 20% or more and less than 40%)

These molecules were tested on windgrass (assay: Test Example 5: herbicidal effect by foliage application, plastic box (Table 20, symbol L)). Settings: foliage application, 320 g/ha, 3 weeks after application.
Format: in vivo, windgrass (Apera spica-venti)
Method in brief: (§1)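 Post-emergence foliar test in sterilized diluvial soil. Compound applied as water-diluted emulsion at a predetermined rate to 14-day-old plants; evaluation at three weeks.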

SMILES	effect on windgrass (L)
CCCC(=O)Oc1c(C)nn(C)c(=O)c1-c1c(-c2ccc(OC)cc2)sc2ccc(F)cc12 [2-027]	0 (Herbicidal rate of 5% or less (almost no effect))
CCOc1ccc(-c2sc3ccc(F)cc3c2-c2c(O)c(C)nn(C)c2=O)cc1 [2-030]	3 (Herbicidal rate of 40% or more and less than 70%)

Each molecule was assayed on southern crabgrass (assay: Test Example 4: herbicidal effect by soil treatment (Table 19, symbol F)). Settings: 320 g/ha.
Format: in vivo, southern crabgrass (Digitaria ciliaris)
Method in brief: (§2)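 Emulsion of test compound, water-diluted to predetermined amount, sprayed on soil after sowing (seed depth ~1.5 cm, sterilized diluvial soil). Greenhouse, 25–30° C. Effect graded at three weeks post-spray.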

SMILES	herbicidal effect rating, F: southern crabgrass
CCCC(=O)Oc1c(C)nn(C)c(=O)c1-c1c(-c2ccc(OC)cc2)sc2ccc(F)cc12 [2-027]	3 (Herbicidal rate of 40% or more and less than 70%)
CCOc1ccc(-c2sc3ccc(F)cc3c2-c2c(O)c(C)nn(C)c2=O)cc1 [2-030]	0 (Herbicidal rate of 5% or less (almost no effect))

The molecules below were run on green foxtail (assay: Test Example 4: herbicidal effect by soil treatment (Table 19, symbol G)). Settings: 320 g/ha.
Format: in vivo, green foxtail (Setaria viridis)
Method in brief: as §2

SMILES	herbicidal effect rating, G: green foxtail
CCCC(=O)Oc1c(C)nn(C)c(=O)c1-c1c(-c2ccc(OC)cc2)sc2ccc(F)cc12 [2-027]	4 (Herbicidal rate of 70% or more and less than 90%)
CCOc1ccc(-c2sc3ccc(F)cc3c2-c2c(O)c(C)nn(C)c2=O)cc1 [2-030]	0 (Herbicidal rate of 5% or less (almost no effect))

The molecules below were run on barnyard grass (assay: Test Example 4: herbicidal effect by soil treatment (Table 19, symbol H)). Settings: 320 g/ha.
Format: in vivo, barnyard grass (Echinochloa crus-galli)
Method in brief: as §2

SMILES	herbicidal effect rating, H: barnyard grass
CCCC(=O)Oc1c(C)nn(C)c(=O)c1-c1c(-c2ccc(OC)cc2)sc2ccc(F)cc12 [2-027]	4 (Herbicidal rate of 70% or more and less than 90%)
CCOc1ccc(-c2sc3ccc(F)cc3c2-c2c(O)c(C)nn(C)c2=O)cc1 [2-030]	0 (Herbicidal rate of 5% or less (almost no effect))

These molecules were tested on lambsquarters (assay: Test Example 5: herbicidal effect by foliage application, plastic box (Table 20, symbol O)). Settings: foliage application, 320 g/ha, 3 weeks after application.
Format: in vivo, lambsquarters (Chenopodium album)
Method in brief: as §1

SMILES	effect on lambsquarters (O)
CCCC(=O)Oc1c(C)nn(C)c(=O)c1-c1c(-c2ccc(OC)cc2)sc2ccc(F)cc12 [2-027]	5 (Herbicidal rate of 90% or more (almost completely withered))
CCOc1ccc(-c2sc3ccc(F)cc3c2-c2c(O)c(C)nn(C)c2=O)cc1 [2-030]	4 (Herbicidal rate of 70% or more and less than 90%)

These molecules were tested on oval-leafed pondweed (assay: Test Example 1: herbicidal activity, application before weed generation under submerged conditions (Table 16, symbol C)). Settings: 320 g/ha applied herbicide.
Format: in vivo, oval-leafed pondweed (Monochoria vaginalis)
Method in brief: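 Submerged Wagner pots (alluvial soil, 4 cm water) sown with weed seeds and planted with 2.5-leaf rice seedlings; emulsifiable concentrate diluted in water applied to water surface on sowing day. Held in greenhouse at 25-30 °C; injury scored 0-5 by herbicidal rate after three weeks.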

SMILES	Herbicidal effect on C: oval-leafed pondweed (grade 0-5)
CCCC(=O)Oc1c(C)nn(C)c(=O)c1-c1c(-c2ccc(OC)cc2)sc2ccc(F)cc12 [2-027]	4 (Herbicidal rate of 70% or more and less than 90%)
CCOc1ccc(-c2sc3ccc(F)cc3c2-c2c(O)c(C)nn(C)c2=O)cc1 [2-030]	0 (Herbicidal rate of 5% or less (almost no effect))

Each molecule was assayed on velvetleaf (assay: Test Example 4: herbicidal effect by soil treatment (Table 19, symbol M)). Settings: 320 g/ha.
Format: in vivo, velvetleaf (Abutilon theophrasti)
Method in brief: as §2

SMILES	herbicidal effect rating, M: velvetleaf
CCCC(=O)Oc1c(C)nn(C)c(=O)c1-c1c(-c2ccc(OC)cc2)sc2ccc(F)cc12 [2-027]	3 (Herbicidal rate of 40% or more and less than 70%)
CCOc1ccc(-c2sc3ccc(F)cc3c2-c2c(O)c(C)nn(C)c2=O)cc1 [2-030]	3 (Herbicidal rate of 40% or more and less than 70%)

The molecules below were run on wild oat (assay: Test Example 4: herbicidal effect by soil treatment (Table 19, symbol I)). Settings: 320 g/ha.
Format: in vivo, wild oat (Avena fatua)
Method in brief: as §2

SMILES	herbicidal effect rating, I: wild oat
CCCC(=O)Oc1c(C)nn(C)c(=O)c1-c1c(-c2ccc(OC)cc2)sc2ccc(F)cc12 [2-027]	2 (Herbicidal rate of 20% or more and less than 40%)
CCOc1ccc(-c2sc3ccc(F)cc3c2-c2c(O)c(C)nn(C)c2=O)cc1 [2-030]	0 (Herbicidal rate of 5% or less (almost no effect))

The molecules below were run on persian speedwell (assay: Test Example 4: herbicidal effect by soil treatment (Table 19, symbol R)). Settings: 320 g/ha.
Format: in vivo, Persian speedwell (Veronica persica)
Method in brief: as §2

SMILES	herbicidal effect rating, R: persian speedwell
CCCC(=O)Oc1c(C)nn(C)c(=O)c1-c1c(-c2ccc(OC)cc2)sc2ccc(F)cc12 [2-027]	5 (Herbicidal rate of 90% or more (almost completely withered))
CCOc1ccc(-c2sc3ccc(F)cc3c2-c2c(O)c(C)nn(C)c2=O)cc1 [2-030]	5 (Herbicidal rate of 90% or more (almost completely withered))

The molecules below were run on lambsquarters (assay: Test Example 4: herbicidal effect by soil treatment (Table 19, symbol O)). Settings: 320 g/ha.
Format: in vivo, lambsquarters (Chenopodium album)
Method in brief: as §2

SMILES	herbicidal effect rating, O: lambsquarters
CCCC(=O)Oc1c(C)nn(C)c(=O)c1-c1c(-c2ccc(OC)cc2)sc2ccc(F)cc12 [2-027]	5 (Herbicidal rate of 90% or more (almost completely withered))
CCOc1ccc(-c2sc3ccc(F)cc3c2-c2c(O)c(C)nn(C)c2=O)cc1 [2-030]	5 (Herbicidal rate of 90% or more (almost completely withered))

Each molecule was assayed on persian speedwell (assay: Test Example 5: herbicidal effect by foliage application, plastic box (Table 20, symbol R)). Settings: foliage application, 320 g/ha, 3 weeks after application.
Format: in vivo, Persian speedwell (Veronica persica)
Method in brief: as §1

SMILES	effect on persian speedwell (R)
CCCC(=O)Oc1c(C)nn(C)c(=O)c1-c1c(-c2ccc(OC)cc2)sc2ccc(F)cc12 [2-027]	5 (Herbicidal rate of 90% or more (almost completely withered))
CCOc1ccc(-c2sc3ccc(F)cc3c2-c2c(O)c(C)nn(C)c2=O)cc1 [2-030]	5 (Herbicidal rate of 90% or more (almost completely withered))

What follows are molecules tested on blackgrass (assay: Test Example 4: herbicidal effect by soil treatment (Table 19, symbol J)). Settings: 320 g/ha.
Format: in vivo, blackgrass (Alopecurus myosuroides)
Method in brief: as §2

SMILES	herbicidal effect rating, J: blackgrass
CCCC(=O)Oc1c(C)nn(C)c(=O)c1-c1c(-c2ccc(OC)cc2)sc2ccc(F)cc12 [2-027]	0 (Herbicidal rate of 5% or less (almost no effect))
CCOc1ccc(-c2sc3ccc(F)cc3c2-c2c(O)c(C)nn(C)c2=O)cc1 [2-030]	0 (Herbicidal rate of 5% or less (almost no effect))

These molecules were tested on velvetleaf (assay: Test Example 5: herbicidal effect by foliage application, plastic box (Table 20, symbol M)). Settings: foliage application, 320 g/ha, 3 weeks after application.
Format: in vivo, velvetleaf (Abutilon theophrasti)
Method in brief: as §1

SMILES	effect on velvetleaf (M)
CCCC(=O)Oc1c(C)nn(C)c(=O)c1-c1c(-c2ccc(OC)cc2)sc2ccc(F)cc12 [2-027]	5 (Herbicidal rate of 90% or more (almost completely withered))
CCOc1ccc(-c2sc3ccc(F)cc3c2-c2c(O)c(C)nn(C)c2=O)cc1 [2-030]	5 (Herbicidal rate of 90% or more (almost completely withered))

Each molecule was assayed on chickweed (assay: Test Example 4: herbicidal effect by soil treatment (Table 19, symbol P)). Settings: 320 g/ha.
Format: in vivo, common chickweed (Stellaria media)
Method in brief: as §2

SMILES	herbicidal effect rating, P: chickweed
CCCC(=O)Oc1c(C)nn(C)c(=O)c1-c1c(-c2ccc(OC)cc2)sc2ccc(F)cc12 [2-027]	4 (Herbicidal rate of 70% or more and less than 90%)
CCOc1ccc(-c2sc3ccc(F)cc3c2-c2c(O)c(C)nn(C)c2=O)cc1 [2-030]	3 (Herbicidal rate of 40% or more and less than 70%)

Each molecule was assayed on southern crabgrass (assay: Test Example 5: herbicidal effect by foliage application, plastic box (Table 20, symbol F)). Settings: foliage application, 320 g/ha, 3 weeks after application.
Format: in vivo, southern crabgrass (Digitaria ciliaris)
Method in brief: as §1

SMILES	effect on southern crabgrass (F)
CCCC(=O)Oc1c(C)nn(C)c(=O)c1-c1c(-c2ccc(OC)cc2)sc2ccc(F)cc12 [2-027]	4 (Herbicidal rate of 70% or more and less than 90%)
CCOc1ccc(-c2sc3ccc(F)cc3c2-c2c(O)c(C)nn(C)c2=O)cc1 [2-030]	3 (Herbicidal rate of 40% or more and less than 70%)
